In patent US11732277B2, “Cellular production of pure iron oxide nanoparticles” (NANOBACTERIE, priority 2018, dated 2023):

Each molecule was assayed on MSR-1 magnetotactic bacteria. Details: condition 4, individual vitamin replacing yeast extract, mineral elixir CB3; 50 mL tubes.
Type: cell-based
Experimental: Optical density measurements of suspensions of whole magnetotactic bacteria to assess bacterial growth: The optical density of the different suspensions of magnetotactic bacteria was measured at 565 nm, designated as OD565 nm, using a Secomam UviLine9400 spectrophotometer. The value of OD565 nm is proportional to the concentrations of bacteria in the suspensions. […]
This example describes the experimental protocol used to determine the reduced medium replacing the yeast extract that enables the growth of MSR-1 magnetotactic bacteria and the synthesis of magnetosomes by these bacteria. In this example we used non-pharmaceutical grade chemicals for the preparation of the growth media. The compositions of pre-growth and growth media, in one liter of de-ionized water, are indicated in table 2 (condition 2), table 3 (condition 3), and table 4 (condition 4). During the first day of the experiment (D1), a first step consists in collecting the tubes of 15 ml containing 5 mL of MSR-1 cellular stock tube from the freezer at −80° C., in thawing the tubes by letting them at room temperature for 10 minutes. In a hood, we collected from these tubes 100 μl comprising 5.10^6 MSR-1 magnetotactic bacteria that we have inserted in a 50 mL tube comprising 8 mL of filtered pre-growth medium of either condition 2 (table 2), condition 3 (table 3), or condition 4 (table 4). The 50 ml tubes were incubated for 6 days between D1 and D6 in an incubator at 29.5° C. under shaking conditions at 150 rpm. A second step consisted in adding an iron source to the growth media to enable the synthesis of magnetosomes by MSR-1 bacteria. After 6 days of pre-growth, at D6, the 50 ml tubes were placed in a hood. 30 ml of filtered growth medium were then added to the 50 mL tubes (condition 2, table 2, condition 3, table 3, condition 4, table 4) at D6 and the bacteria grew between D6 and D13. […] In contrast, the magnetic response is 0 for conditions Vit5X, Vit10X (condition 3) and very low for conditions CP, I, AA, P (condition 4). […]

| Molecule | OD565 nmD13/OD565 nmD6 |
| --- | --- |
| O=C(O)c1cccnc1 [nicotinic acid, Nicotinic acid] | 2.4 |
| Cc1cc2nc3c(=O)[nH]c(=O)nc-3n(C[C@H](O)[C@H](O)[C@H](O)CO)c2cc1C [Riboflavin] | 4.8 |
| Nc1nc2ncc(CNc3ccc(C(=O)N[C@@H](CCC(=O)O)C(=O)O)cc3)nc2c(=O)[nH]1 [folic acid, Folic acid] | 2.9 |

Same assay, conditions: condition 4, individual vitamin replacing yeast extract, mineral elixir CB3; 50 mL tubes; listed as thiamin HCl, HCl

| Molecule | OD565 nmD13/OD565 nmD6 |
| --- | --- |
| Thiamine HCl | 5.8 |

Same assay, conditions: condition 4, individual vitamins

| Molecule | Growth ratio (ODD13/ODD6) |
| --- | --- |
| Calcium pantothenate [CP] | 3.3 |
| O=C(O)c1cccnc1 [nicotinic acid, Nicotinic acid] | 2.4 |
| Nc1ccc(C(=O)O)cc1 [AA, p-Aminobenzoic acid] | 6.7 |
| Cc1cc2nc3c(=O)[nH]c(=O)nc-3n(C[C@H](O)[C@H](O)[C@H](O)CO)c2cc1C [Riboflavin] | 4.8 |
| Cc1ncc(CO)c(CO)c1O.Cl [P, Pyridoxine HCl] | 2.8 |
| Nc1nc2ncc(CNc3ccc(C(=O)N[C@@H](CCC(=O)O)C(=O)O)cc3)nc2c(=O)[nH]1 [folic acid, Folic acid] | 2.9 |
| Thiamine HCl | 5.8 |
| O[C@H]1[C@H](O)[C@@H](O)[C@H](O)[C@@H](O)[C@H]1O [I, Inositol] | 2.4 |

Same assay, conditions: condition 4, individual vitamins; OD at 565 nm; day 6

| Molecule | Optical density following pre-growth (ODD6) |
| --- | --- |
| Calcium pantothenate [CP] | 0.3 |
| O=C(O)c1cccnc1 [nicotinic acid, Nicotinic acid] | 0.27 |
| Nc1ccc(C(=O)O)cc1 [AA, p-Aminobenzoic acid] | 0.12 |
| Cc1cc2nc3c(=O)[nH]c(=O)nc-3n(C[C@H](O)[C@H](O)[C@H](O)CO)c2cc1C [Riboflavin] | 0.19 |
| Cc1ncc(CO)c(CO)c1O.Cl [P, Pyridoxine HCl] | 0.25 |
| Nc1nc2ncc(CNc3ccc(C(=O)N[C@@H](CCC(=O)O)C(=O)O)cc3)nc2c(=O)[nH]1 [folic acid, Folic acid] | 0.4 |
| Thiamine HCl | 0.26 |
| O[C@H]1[C@H](O)[C@@H](O)[C@H](O)[C@@H](O)[C@H]1O [I, Inositol] | 0.33 |

Same assay, conditions: condition 4, individual vitamins; OD at 565 nm; day 13

| Molecule | Optical density following growth (ODD13) |
| --- | --- |
| Calcium pantothenate [CP] | 0.98 |
| O=C(O)c1cccnc1 [nicotinic acid, Nicotinic acid] | 0.65 |
| Nc1ccc(C(=O)O)cc1 [AA, p-Aminobenzoic acid] | 0.8 |
| Cc1cc2nc3c(=O)[nH]c(=O)nc-3n(C[C@H](O)[C@H](O)[C@H](O)CO)c2cc1C [Riboflavin] | 0.92 |
| Cc1ncc(CO)c(CO)c1O.Cl [P, Pyridoxine HCl] | 0.7 |
| Nc1nc2ncc(CNc3ccc(C(=O)N[C@@H](CCC(=O)O)C(=O)O)cc3)nc2c(=O)[nH]1 [folic acid, Folic acid] | 1.14 |
| Thiamine HCl | 1.51 |
| O[C@H]1[C@H](O)[C@@H](O)[C@H](O)[C@@H](O)[C@H]1O [I, Inositol] | 0.8 |

Each molecule was assayed on MSR-1 magnetotactic bacteria. Details: condition 4, individual vitamin replacing yeast extract; at D13.
Type: cell-based
Experimental: Measurement of the magnetic response of living magnetotactic bacteria using optical microscopic observations of these bacteria under the application of a magnetic field: 1 mL of a suspension of MSR-1 magnetotactic bacteria was centrifugated at 14500 rpm for 10 minutes. The growth medium was removed and replaced by a volume of PBS 0.1× to reach an OD565 nm of 0.5. 1 μL of this suspension of MSR-1 magnetotactic bacteria was deposited on a parallelipedic microscope slide (Menzel-Glaser, 24 mm×60 mm, […]) for microscopic observation using a Zeiss Primo Vert optical microscope with X40 magnification. Four small cubic Neodinium magnets of strength 1.3 T (Supermagnet, N42 W-10-N 10×10×10 mm) were positioned on the microscope's platform at a distance from the suspension of bacteria of ˜2 cm in such a way that it either generated a magnetic field parallel to the position of the observer or to the line between the two binoculars (position 1) or perpendicular to this position (position 2). 20 seconds after positioning the magnet in position 1 or 2, the percentage of bacteria aligned in the direction of the magnetic field was estimated, by considering 200 magnetotactic bacteria. The bacteria that were not aligned in the same direction as the magnetic field generated by the magnet were considered as non-magnetic. Their number is designated as nBNM. The bacteria that were aligned in the direction of the magnetic field generated by the magnet were considered as magnetic. Their number was designated as nBM. The percentage of magnetic bacteria was then given by nBM/(nBM+nBNM). A positive magnetic response of magnetotatic bacteria corresponded to nBM/(nBM+nBNM)>0.5. A negative magnetic response of magnetotatic bacteria corresponds to nBM/(nBM+nBNM)<0.5.
In some cases, the percentage of magnetic bacteria can be measured by optical observation under microscope in the presence of a magnetic field.

| Molecule | magnetic response |
| --- | --- |
| Calcium pantothenate [CP] | very low |
| O=C(O)c1cccnc1 [nicotinic acid, Nicotinic acid] | 90% |
| Nc1ccc(C(=O)O)cc1 [AA, p-Aminobenzoic acid] | very low |
| Cc1cc2nc3c(=O)[nH]c(=O)nc-3n(C[C@H](O)[C@H](O)[C@H](O)CO)c2cc1C [Riboflavin] | 90% |
| Cc1ncc(CO)c(CO)c1O.Cl [P, Pyridoxine HCl] | very low |
| Nc1nc2ncc(CNc3ccc(C(=O)N[C@@H](CCC(=O)O)C(=O)O)cc3)nc2c(=O)[nH]1 [folic acid, Folic acid] | 90% |
| O=C(O)CCCC[C@@H]1SC[C@@H]2NC(=O)N[C@@H]21 [Biotin] | 90% |
| O[C@H]1[C@H](O)[C@@H](O)[C@H](O)[C@@H](O)[C@H]1O [I, Inositol] | very low |

Same assay, conditions: condition 4, individual vitamin replacing yeast extract; at D13; listed as thiamin HCl, HCl

| Molecule | magnetic response |
| --- | --- |
| Thiamine HCl | 90% |

Same assay, conditions: condition 4, individual vitamins; D13

| Molecule | Magnetic response (%) |
| --- | --- |
| Calcium pantothenate [CP] | 5% |
| O=C(O)c1cccnc1 [nicotinic acid, Nicotinic acid] | >90% |
| Nc1ccc(C(=O)O)cc1 [AA, p-Aminobenzoic acid] | 20% |
| Cc1cc2nc3c(=O)[nH]c(=O)nc-3n(C[C@H](O)[C@H](O)[C@H](O)CO)c2cc1C [Riboflavin] | >90% |
| Cc1ncc(CO)c(CO)c1O.Cl [P, Pyridoxine HCl] | 5% |
| Nc1nc2ncc(CNc3ccc(C(=O)N[C@@H](CCC(=O)O)C(=O)O)cc3)nc2c(=O)[nH]1 [folic acid, Folic acid] | 50% |
| Thiamine HCl | >90% |
| O=C(O)CCCC[C@@H]1SC[C@@H]2NC(=O)N[C@@H]21 [Biotin] | >90% |
| O[C@H]1[C@H](O)[C@@H](O)[C@H](O)[C@@H](O)[C@H]1O [I, Inositol] | 20% |
